Reference: PubChem BioAssay AID1259407 (Chemical Carcinogenesis Research Information System (CCRIS), 2018)
Active and inactive are the calls of the source. No rule for the calls is given here.

System: CCRIS mutagenicity, Ames/micronucleus/aberration tests
Assay: CCRIS mutagenicity studies
Conditions: Method: PREINCUBATION

Measured: mutagenic call

O=C(OOC(=O)c1ccccc1)c1ccccc1
inactive: Test System: AMES SALMONELLA TYPHIMURIUM, Strain/Indicator: TA97, Metabolic Activation: HAMSTER, LIVER, S-9, AROCLOR 1254 (10 OR 30%) inactive; negative | Test System: AMES SALMONELLA TYPHIMURIUM, Strain/Indicator: TA97, Metabolic Activation: NONE inactive; negative | Test System: AMES SALMONELLA TYPHIMURIUM, Strain/Indicator: TA97, Metabolic Activation: RAT, LIVER, S-9, AROCLOR 1254 (10 OR 30%) inactive; negative | Test System: AMES SALMONELLA TYPHIMURIUM, Strain/Indicator: TA97, Metabolic Activation: RAT, LIVER, S-9, AROCLOR 1254 inactive; negative | Test System: AMES SALMONELLA TYPHIMURIUM, Strain/Indicator: TA97A, Metabolic Activation: NONE inactive; negative | Test System: AMES SALMONELLA TYPHIMURIUM, Strain/Indicator: TA97A, Metabolic Activation: RAT LIVER S-9, AROCLOR 1254 inactive; negative | Test System: AMES SALMONELLA TYPHIMURIUM, Strain/Indicator: TA98, Metabolic Activation: HAMSTER, LIVER, S-9, AROCLOR 1254 (10 OR 30%) inactive; negative | Test System: AMES SALMONELLA TYPHIMURIUM, Strain/Indicator: TA98, Metabolic Activation: NONE inactive; negative | Test System: AMES SALMONELLA TYPHIMURIUM, Strain/Indicator: TA98, Metabolic Activation: RAT LIVER S-9, PHENOBARBITAL AND BETA-NAPHTHOFLAVONE inactive; negative | Test System: AMES SALMONELLA TYPHIMURIUM, Strain/Indicator: TA98, Metabolic Activation: RAT, LIVER, S-9, AROCLOR 1254 (10 OR 30%) inactive; negative | Test System: AMES SALMONELLA TYPHIMURIUM, Strain/Indicator: TA100, Metabolic Activation: HAMSTER, LIVER, S-9, AROCLOR 1254 (10 OR 30%) inactive; negative | Test System: AMES SALMONELLA TYPHIMURIUM, Strain/Indicator: TA100, Metabolic Activation: NONE inactive; negative | Test System: AMES SALMONELLA TYPHIMURIUM, Strain/Indicator: TA100, Metabolic Activation: RAT LIVER S-9, AROCLOR 1254 inactive; negative | Test System: AMES SALMONELLA TYPHIMURIUM, Strain/Indicator: TA100, Metabolic Activation: RAT LIVER S-9, PHENOBARBITAL AND BETA-NAPHTHOFLAVONE inactive; negative | Test System: AMES SALMONELLA TYPHIMURIUM, Strain/Indicator: TA100, Metabolic Activation: RAT, LIVER, S-9, AROCLOR 1254 (10 OR 30%) inactive; negative | Test System: AMES SALMONELLA TYPHIMURIUM, Strain/Indicator: TA102, Metabolic Activation: NONE inactive; negative | Test System: AMES SALMONELLA TYPHIMURIUM, Strain/Indicator: TA102, Metabolic Activation: RAT LIVER S-9, AROCLOR 1254 inactive; negative | Test System: AMES SALMONELLA TYPHIMURIUM, Strain/Indicator: TA102, Metabolic Activation: RAT, LIVER, S-9, AROCLOR 1254 inactive; negative | Test System: AMES SALMONELLA TYPHIMURIUM, Strain/Indicator: TA104, Metabolic Activation: NONE inactive; negative | Test System: AMES SALMONELLA TYPHIMURIUM, Strain/Indicator: TA104, Metabolic Activation: RAT LIVER S-9, AROCLOR 1254 inactive; negative | Test System: AMES SALMONELLA TYPHIMURIUM, Strain/Indicator: TA1535, Metabolic Activation: HAMSTER, LIVER, S-9, AROCLOR 1254 (10 OR 30%) inactive; negative | Test System: AMES SALMONELLA TYPHIMURIUM, Strain/Indicator: TA1535, Metabolic Activation: NONE inactive; negative | Test System: AMES SALMONELLA TYPHIMURIUM, Strain/Indicator: TA1535, Metabolic Activation: RAT LIVER S-9, PHENOBARBITAL AND BETA-NAPHTHOFLAVONE inactive; negative | Test System: AMES SALMONELLA TYPHIMURIUM, Strain/Indicator: TA1535, Metabolic Activation: RAT, LIVER, S-9, AROCLOR 1254 (10 OR 30%) inactive; negative | Test System: AMES SALMONELLA TYPHIMURIUM, Strain/Indicator: TA1537, Metabolic Activation: NONE inactive; negative | Test System: AMES SALMONELLA TYPHIMURIUM, Strain/Indicator: TA1537, Metabolic Activation: RAT LIVER S-9, PHENOBARBITAL AND BETA-NAPHTHOFLAVONE inactive; negative | Test System: E.COLI, Strain/Indicator: WP2UVRA/PKM101, Metabolic Activation: NONE inactive; negative | Test System: E.COLI, Strain/Indicator: WP2UVRA/PKM101, Metabolic Activation: RAT LIVER S-9, PHENOBARBITAL AND BETA-NAPHTHOFLAVONE inactive; negative
